Measurements from patent US11547761B1, “Antibody adjuvant conjugates” (The Board of Trustees of the Leland Stanford Junior …, priority 2016, dated 2023).

Legend:
[1] = tested on: recombinant human CD16a protein; test: ELISA binding to CD16a; conditions: titration
Method: Maxysorp ELISA plates were coated overnight with 1.5 ug/ml recombinant human CD16a protein (R&D Systems 4325-FC-050). Plates were blocked with PBS containing 1% BSA, and incubated with a titration of antibodies or antibody immunoconjugates. Bound antibodies were detected with Peroxidase conjugated AffiniPure F(ab′)2 Fragment Goat Anti-Human IgG (Jackson 109-036-003). TMB (Fisher PI34028) was added to the wells and absorbance at 450 nm was measured after stopping the reaction with TMB stop solution (Fisher NC1291012).

[2] = target: T1, recombinant human CD64 protein (Homo sapiens, UniProt P12314); test: ELISA binding to CD64; conditions: titration
T1 construct: purchased R&D Systems
T1 sequence (P12314 16-374): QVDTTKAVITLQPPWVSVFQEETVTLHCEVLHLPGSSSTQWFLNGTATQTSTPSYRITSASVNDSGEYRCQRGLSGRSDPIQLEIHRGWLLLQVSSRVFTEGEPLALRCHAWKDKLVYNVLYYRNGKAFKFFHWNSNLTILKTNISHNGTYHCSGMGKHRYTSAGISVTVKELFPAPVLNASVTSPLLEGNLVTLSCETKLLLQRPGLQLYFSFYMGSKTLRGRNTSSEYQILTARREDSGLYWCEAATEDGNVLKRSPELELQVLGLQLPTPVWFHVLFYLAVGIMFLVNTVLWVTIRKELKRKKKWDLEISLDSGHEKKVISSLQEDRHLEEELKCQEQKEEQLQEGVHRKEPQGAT
Method: Maxysorp ELISA plates were coated overnight with 1.5 ug/ml recombinant human CD64 protein (R&D Systems). Plates were blocked with PBS containing 1% BSA, and incubated with a titration of Rituximab or Rituximab immunoconjugates (Rituximab BB-01). Bound antibodies were detected with Peroxidase conjugated AffiniPure F(ab′)2 Fragment Goat Anti-Human IgG (Jackson) using TMB color development and absorbance at 450 nm was measured after stopping the reaction.

[3] = tested on: human antigen presenting cells; test: Stimulation of human antigen presenting cells with free adjuvants, flow cytometry; format: cell-based; conditions: peripheral blood APCs, 10-fold serial dilutions, 18 hours, 37° C.
Method: Peripheral blood antigen presenting cells (APCs) were stimulated with 10-fold serial dilutions of R848, Compound 2 or a control TLR agonist at 37° C. After 18 hours, cells were analyzed via flow cytometry. Data are presented as median fluorescence intensity of each indicated marker; n=3.
To determine if adjuvant functionalization impacted the capacity of Compound 2 or Compound 1 to elicit immune activation, human antigen presenting cells were stimulated with 10-fold serial dilutions of R848, Compound 2, Compound 1 or a control TLR agonist, CL307, for 18 hours prior to analysis via flow cytometry.

human TLR7 = target: T2, human TLR7 (Homo sapiens, UniProt Q9NYK1); test: HEK293 TLR reporter (secreted embryonic alkaline phosphatase) assay; format: cell-based; conditions: 2-fold serial dilutions, 12 hours at 37° C.
T2 construct: expressed in transfected cells; host or cells: HEK293
T2 sequence (Q9NYK1 27-1049): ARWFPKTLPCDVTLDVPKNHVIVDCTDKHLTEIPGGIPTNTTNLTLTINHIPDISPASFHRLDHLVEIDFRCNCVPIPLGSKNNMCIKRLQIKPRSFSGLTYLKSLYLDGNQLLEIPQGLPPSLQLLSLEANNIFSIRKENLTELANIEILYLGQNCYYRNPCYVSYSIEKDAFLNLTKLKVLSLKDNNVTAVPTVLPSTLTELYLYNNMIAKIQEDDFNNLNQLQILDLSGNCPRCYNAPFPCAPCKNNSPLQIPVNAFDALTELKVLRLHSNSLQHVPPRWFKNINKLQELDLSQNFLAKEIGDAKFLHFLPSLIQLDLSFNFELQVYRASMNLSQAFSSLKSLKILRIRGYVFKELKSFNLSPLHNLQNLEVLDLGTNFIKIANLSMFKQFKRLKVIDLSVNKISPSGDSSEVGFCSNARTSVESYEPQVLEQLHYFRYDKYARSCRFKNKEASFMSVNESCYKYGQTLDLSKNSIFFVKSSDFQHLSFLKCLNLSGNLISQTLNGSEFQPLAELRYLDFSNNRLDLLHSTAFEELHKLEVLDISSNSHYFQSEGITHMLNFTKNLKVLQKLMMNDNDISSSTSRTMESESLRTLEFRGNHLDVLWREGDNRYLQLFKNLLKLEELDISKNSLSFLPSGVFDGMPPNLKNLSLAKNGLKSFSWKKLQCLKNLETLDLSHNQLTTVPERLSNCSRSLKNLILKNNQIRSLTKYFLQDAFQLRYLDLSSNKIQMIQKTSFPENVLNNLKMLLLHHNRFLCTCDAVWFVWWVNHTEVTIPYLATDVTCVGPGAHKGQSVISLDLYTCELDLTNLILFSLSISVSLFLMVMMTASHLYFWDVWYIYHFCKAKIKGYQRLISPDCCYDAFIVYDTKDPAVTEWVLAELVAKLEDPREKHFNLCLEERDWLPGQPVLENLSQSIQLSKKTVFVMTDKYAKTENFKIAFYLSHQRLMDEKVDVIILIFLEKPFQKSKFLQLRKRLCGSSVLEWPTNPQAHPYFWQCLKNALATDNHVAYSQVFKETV
Method: (§1) HEK293 cells were co-transfected with human TLR7 or TLR8 (top two panels) or murine TLR7 (bottom panel) and an inducible secreted embryonic alkaline phosphatase reporter gene under the control of the IFN-β minimal promoter fused to NF-κB and AP-1 binding sites. Cells were subsequently incubated with 2-fold serial dilutions of the indicated adjuvant for 12 hours at 37° C. Activity was measured by spectrophotometry (OD 650 nm) following addition of alkaline phosphatase substrate.
(§2) Next, the capacity of each functionalized TLR agonist to activate human TLR7 or TLR8 was directly assayed. HEK293 cells were co-transfected with human TLR7 or TLR8 or murine TLR7 and an inducible secreted embryonic alkaline phosphatase reporter gene under the control of the IFN-β minimal promoter fused to NF-κB and AP-1 binding sites. Cells were subsequently incubated with 2-fold serial dilutions of each the indicated adjuvants for 12 hours at 37 C in the presence of an alkaline phosphatase substrate. Activity was measured by spectrophotometry (OD 650 nm).

human TLR8 = target: T3, human TLR8 (Homo sapiens, UniProt Q9NR97); test: as above; format: cell-based; conditions: 2-fold serial dilutions, 12 hours at 37° C.
T3 construct: expressed in transfected cells; host or cells: HEK293
T3 sequence (Q9NR97 27-1041): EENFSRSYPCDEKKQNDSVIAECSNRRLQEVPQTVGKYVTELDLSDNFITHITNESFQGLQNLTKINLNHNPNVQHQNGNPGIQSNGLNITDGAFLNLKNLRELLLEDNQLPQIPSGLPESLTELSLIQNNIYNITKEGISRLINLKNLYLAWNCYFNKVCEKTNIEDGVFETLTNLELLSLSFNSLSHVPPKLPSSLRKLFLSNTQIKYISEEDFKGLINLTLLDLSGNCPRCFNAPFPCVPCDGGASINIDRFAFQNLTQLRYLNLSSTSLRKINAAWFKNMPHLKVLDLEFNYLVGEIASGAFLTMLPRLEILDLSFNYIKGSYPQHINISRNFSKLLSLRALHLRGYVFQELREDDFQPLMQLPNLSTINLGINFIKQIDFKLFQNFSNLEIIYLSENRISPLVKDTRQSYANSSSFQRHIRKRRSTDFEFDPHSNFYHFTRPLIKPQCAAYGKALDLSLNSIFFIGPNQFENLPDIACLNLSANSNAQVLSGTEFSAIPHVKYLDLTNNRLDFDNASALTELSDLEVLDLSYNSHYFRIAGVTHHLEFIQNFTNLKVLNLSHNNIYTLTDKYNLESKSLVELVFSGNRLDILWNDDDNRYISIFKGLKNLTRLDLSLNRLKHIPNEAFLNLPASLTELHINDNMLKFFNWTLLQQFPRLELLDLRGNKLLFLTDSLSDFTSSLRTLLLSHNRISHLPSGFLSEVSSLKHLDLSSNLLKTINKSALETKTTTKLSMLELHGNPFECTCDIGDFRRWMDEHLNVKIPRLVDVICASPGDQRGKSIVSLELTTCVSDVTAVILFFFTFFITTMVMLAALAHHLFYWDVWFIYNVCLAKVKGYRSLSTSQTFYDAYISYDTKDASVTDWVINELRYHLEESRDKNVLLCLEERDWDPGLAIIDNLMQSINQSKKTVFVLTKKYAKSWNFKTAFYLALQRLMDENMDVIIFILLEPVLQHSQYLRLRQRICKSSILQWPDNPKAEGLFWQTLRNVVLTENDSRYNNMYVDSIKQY
Method: as §1, §2

murine TLR7 = target: T4, murine TLR7 (Mus musculus, UniProt P58681); test: as above; format: cell-based; conditions: 2-fold serial dilutions, 12 hours at 37° C.
T4 construct: expressed in transfected cells; host or cells: HEK293
T4 sequence (P58681 27-1050): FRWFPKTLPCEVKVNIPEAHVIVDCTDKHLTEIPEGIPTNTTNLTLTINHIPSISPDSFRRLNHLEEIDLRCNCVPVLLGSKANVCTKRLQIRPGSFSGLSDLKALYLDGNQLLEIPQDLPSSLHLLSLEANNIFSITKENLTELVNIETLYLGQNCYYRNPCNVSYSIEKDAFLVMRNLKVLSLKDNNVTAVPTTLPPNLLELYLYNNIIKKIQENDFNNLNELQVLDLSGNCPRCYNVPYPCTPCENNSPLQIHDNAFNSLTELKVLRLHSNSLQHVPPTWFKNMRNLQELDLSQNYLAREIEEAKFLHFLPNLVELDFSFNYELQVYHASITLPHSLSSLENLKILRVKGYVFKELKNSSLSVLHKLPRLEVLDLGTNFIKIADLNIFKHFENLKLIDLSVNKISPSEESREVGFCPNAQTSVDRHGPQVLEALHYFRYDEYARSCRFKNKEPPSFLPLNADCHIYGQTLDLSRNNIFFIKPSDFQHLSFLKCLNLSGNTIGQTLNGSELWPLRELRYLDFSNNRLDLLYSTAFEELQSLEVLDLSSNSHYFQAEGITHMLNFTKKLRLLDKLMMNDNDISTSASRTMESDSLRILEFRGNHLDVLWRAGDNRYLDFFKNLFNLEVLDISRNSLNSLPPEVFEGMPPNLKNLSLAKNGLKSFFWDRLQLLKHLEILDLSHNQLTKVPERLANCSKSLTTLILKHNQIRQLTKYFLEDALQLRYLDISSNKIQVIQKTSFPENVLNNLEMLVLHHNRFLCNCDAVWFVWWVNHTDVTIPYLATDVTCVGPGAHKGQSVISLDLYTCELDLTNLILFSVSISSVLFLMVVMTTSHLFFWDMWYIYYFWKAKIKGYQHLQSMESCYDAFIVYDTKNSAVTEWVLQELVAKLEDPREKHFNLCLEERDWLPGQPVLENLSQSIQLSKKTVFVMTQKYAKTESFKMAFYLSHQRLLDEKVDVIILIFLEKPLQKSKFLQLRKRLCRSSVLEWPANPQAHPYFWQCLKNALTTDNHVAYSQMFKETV
Method: as §1, §2

[4] = tested on: murine monocyte derived APCs; test: Cytokine secretion in murine monocyte derived APCs (GM-CSF-pretreated monocytes); format: cell-based; conditions: 18 hours
Method: Specifically, cytokine production is shown in FIG. 21 for GM-CSF-pretreated monocytes that were stimulated for 18 hours with the immunoconjugates or equivalent amounts of the unconjugated components.

Question: With “aglycosyl Rituximab: aglycosyl Rituximab (Invivogen hcd20-mab12)” as the compound, how does the “binding to CD16a (fraction of maximal OD signal)” value [1] read?
Answer: Its value is “diminished binding”.

Question: How did the “binding to CD64” value [2] turn out when “deglycosylated Rituximab: Rituximab deglycosylated with PNGase F” was run?
Answer: The value was “impaired binding to CD64”.

Question: `CCCCc1nc2c(N)nc3ccccc3c2n1CCCCN` [Compound 1] was tested. Which “myeloid cell activation (median fluorescence intensity of activation markers)” value [3] did it give?
Answer: The value was “performed similarly to R848”.

Question: What about the “human TLR7 activation (OD 650 nm)” value (human TLR7) of the same compound?
Answer: The value was “activated both human TLR7 and TLR8”.

Question: And the “human TLR8 activation (OD 650 nm)” value (human TLR8)?
Answer: Its value is “activated both human TLR7 and TLR8”.

Question: What about the “murine TLR7 activation (OD 650 nm)” value (murine TLR7) of the same compound?
Answer: Its value is “activated murine TLR7”.

Question: And the “cytokine response (TNFα, IL-6, IL-12p70)” value [4]?
Answer: The value was “failed to produce any cytokine response”.
